Laboratory results from US20250017952A1, “ANTIFUNGAL COMPOUND, COMPOSITION AND USES THEREOF” (SASTRA DEEMED UNIVERSITY, priority 2021, published 2025).
Where “and” joins values, the source holds several entries; their conditions need not be identical. Equal entries are not always repeated. Entries after “also recorded” stand apart in the source; their conditions may differ.

Assays:
[1] = tested on: C. albicans biofilm, hyphal and virulence genes; test: qRTPCR of biofilm, hyphal and virulence genes; type: cell-based, Candida albicans
Experimental: FIG. 8 illustrates the qRTPCR analysis of biofilm, hyphal and virulence genes in C. albicans biofilms treated with Cangrelor using 18srRNA as the housekeeping gene. Briefly, after 24 h incubation, planktonic cells were removed, and biofilm cells were collected, and RNA was extracted for the treated and untreated groups. […] The data was obtained in triplicates and analysis was performed by the 2^−ΔΔCt method.

C. albicans biofilm = test: Biofilm inhibition, Crystal Violet (CV) assay; type: cell-based, Candida albicans; conditions: crystal violet biofilm biomass
Experimental: (§1) FIG. 3 illustrates antifungal and antibiofilm evaluation against C. albicans at varying concentrations: The effect of the Cangrelor on planktonic cells was determined by measuring the OD at 595 nm. A wide range of concentrations ranging from 100 μM-0.47 pM were considered for evaluation. Biofilm inhibitory effects were determined by measuring the biofilm biomass using the Crystal Violet (CV) assay. The dose-response curves were plotted by fitting the inhibition data using a 4-parameter logistic equation. Cangrelor inhibited biofilms at a minimum concentration of 120 pM

[2] = tested on: C. albicans virulence genes (biofilm, hyphae, drug resistance); test: RNAseq differential expression analysis; type: cell-based, Candida albicans; conditions: treated vs untreated
Excerpt: A cutoff absolute value of log fold change >1 (2-fold change) was used. Adjusted P value <0.05 (c) Venn diagram illustrating the degree of overlap between various virulence genes (Biofilm Inducing (BI); Hyphal Inducing (HI); and Drug Resistance (DR) in C. albicans under drug (Cangrelor) treated and untreated conditions.
TRY6, FYV5 (Pentland et al., 2018; Murillo et al., 2005; Nett et al., 2009a), drug-resistance genes MAK1 and RPP1 (Nett et al., 2009b; Levitin & Whiteway, 2007a) and upregulation of the genes, GAL and MAF1 that negatively regulates (repressors) the biofilm phenotype in C. albicans (Nobile et al., 2012). […] In Candida albicans, the potential shift from yeast to hypha is a route cause to host invasion and symbiotic relationship with other pathogens, where the data was significant to show downregulation of hyphal-specific genes such as ECE1, RAS, NDT80 (Moyes et al., 2016). […] This observation was very crucial to the inventor's claim that the compound, Cangrelor could potentiate the anti-fungal susceptibility (Moyes et al., 2016; Maglott et al., 2007b; Levitin & Whiteway, 2007b; Chaudhuri et al., 2011; Singh et al., 2011). Taken together, Cangrelor systematically downregulate the virulence features to potentially curb the pathogenesis of C. albicans.

[3] = tested on: C. albicans SC5314 biofilm; test: SEM analysis of biofilm; type: cell-based, Candida albicans
Experimental: FIG. 5 illustrates Cangrelor abolish C. albicans SC5314 biofilm. An overnight culture of C. albicans was grown overnight at 30° C. in YPD liquid media. C. albicans cells (1.5×10^7 cells/ml) were seeded on the glass slides in the presence or absence of the ALS-3 drug-like chemotype, Cangrelor in YPD and incubated at 37° C. for 24 h. […] Statistical significance was determined using the unpaired Student's t test (P<0.0001).

[4] = tested on: Candida albicans SC5314, ATCC90028, clinical isolate BF1; test: Germ tube / filamentation inhibition, phase contrast; type: cell-based; conditions: for germ tube / hyphal morphogenesis, time-dependent: till 6 h, three strains
Experimental: FIG. 6 illustrates the phase contrast images of germ tube inhibition of Candida albicans for the three strains by cangrelor in a time-dependent manner till 6 h. The untreated C. albicans show the hyphal development from the 2nd hour, where the yeast cells adhere, and at the 6 h, the hyphal is elongated and branched.
FIG. 7 illustrates the phase contrast images of filamentation inhibition of Candida albicans by cangrelor after 24 h of inhibition.
A time-dependent mapping of the hyphal development was done until 6 h upon Cangrelor treatment and compared to the untreated control for the three strains of C. albicans, including the standard strains-SC5314 and ATCC90028, and clinical isolate, BF1. […] The morphogenesis switch inhibition is essential as the primary virulence characteristic of C. albicans is hyphal formation. The hyphal form is necessary for biofilm formation and polymicrobial interaction to invade the host cell and overcome the immune response.

[5] = tested on: C. albicans planktonic cells; test: Planktonic growth, OD at 595 nm; type: cell-based, Candida albicans; conditions: 100 μM-0.47 pM tested
Experimental: as §1

[6] = tested on: C. albicans SC5314 biofilm; test: CLSM analysis of biofilm with COMSTAT quantification; type: cell-based, Candida albicans; conditions: for live/dead fluorescence of cells in CLSM: green = live, red = dead
Excerpt: FIG. 4a illustrates CLSM analyses of biofilm inhibitory effects of Cangrelor against C. albicans SC5314. […] The presence of red fluorescence in fluconazole treatment confirms its fungicidal effect. The COMSTAT analysis was done to quantify the biofilm coverage, average thickness, and biovolume from Z-stacks obtained from at least 5 regions of the glass slides, using a confocal laser scanning microscope (Olympus FLUOVIEW, FV1000) with a 40× objective lens (FIG. 4b).

[7] = tested on: Candida albicans on T24 bladder epithelial cells; test: Adhesion and invasion of C. albicans in monolayer T24 bladder epithelial cells; type: cell-based
Excerpt: FIG. 10 illustrates the microscopic images of the monolayer T24 bladder epithelial cells infected with Candida albicans with and without Cangrelor treatment. […] The yeast cells (circled in white) were maintained upon the treatment and thereby couldn't adhere and invade the epithelial cells.

CSCCNc1nc(SCCC(F)(F)F)nc2c1ncn2[C@@H]1O[C@H](COP(=O)(O)OP(=O)(O)C(Cl)(Cl)P(=O)(O)O)[C@@H](O)[C@H]1O [Cangrelor]
expression of adhesion and invasion genes ([1]; 240 pM, 24 h biofilm cells): downregulated | ECE1 gene expression ([1]; qRTPCR): downregulation | ERG11 gene expression ([1]; qRTPCR): downregulated | PLB1 expression downregulation ([1]; qRTPCR, 2^−ΔΔCt): ~2 log fold | expression of transcriptional regulators of biofilm and hyphal genes, adhesin and hyphal specific protein ([1]; qRTPCR, 18srRNA housekeeping): downregulated | IC50 (C. albicans biofilm; Candida albicans, read-out: BIC50 (50% Biofilm Inhibition Concentration)): 120 pM | concentration at which biofilms were inhibited (minimum / very low concentration) (C. albicans biofilm): 120 pM | number of biofilm inducing genes downregulated [2]: more than 90 genes | filamentation in SEM ([3]; 120 pM vs untreated control): abolished filamentation | number of cells in SEM ([3]; 120 pM, 24 h, YPD, untreated more than 1200 cells): < 56 cells and < 60 cells | filamentation after 24 h ([4]; 24 h): maintained the yeast form | germ tube / hyphal morphogenesis, time-dependent [4]: inhibits the hyphal morphogenesis | germ tube / hyphal morphogenesis, time-dependent ([4]; listed as cangrelor): did not switch to the hyphal form | growth of C. albicans (planktonic) [5]: without affecting growth; also recorded: not inhibited | biofilm structure in CLSM images ([6]; C. albicans SC5314): no biofilm formation | roughness coefficient ([6]; COMSTAT, control 1.2): 1.91 | diffusion distance ([6]; COMSTAT, control 8.73 μm): 0.18 μm | average biofilm thickness ([6]; COMSTAT, control 28.64 μm): 0.5 μm | biofilm biomass ([6]; COMSTAT, untreated 25.96 μm): significant reduction | live/dead fluorescence of cells in CLSM [6]: live cells | adherence and invasion of epithelial cells [7]: reducing adherence and invasion | hyphal morphogenesis on epithelial cells [7]: inhibited hyphal morphogenesis

OC(Cn1cncn1)(Cn1cncn1)c1ccc(F)cc1F [fluconazole]
live/dead fluorescence of cells in CLSM [6]: dead cells
